Data as given in US20260375265A1, “COMPOSITION FOR ALLEVIATING SKIN PIGMENTATION” (LG H & H CO., LTD., priority 2023, published 2026).

Legend:
[1] = system: KITLG; assay: qPCR of KITLG mRNA expression in UVB-irradiated human keratinocytes (HaCaT); assay type: cell-based; conditions: UVB 30 mJ/cm^2 (312 nm), substance one day, appropriate concentration, FIG. 2, UVB alone increased
Procedure: (§1) Screening was performed for substances that influence the expression of genes associated with dark skin tone among various substances having skin-improving efficacy. Changes in the expression of genes associated with dark skin tone were examined in cells where melanin synthesis was increased by a-MSH, and substances that restored the expression to the level before a-MSH treatment were selected.
To analyze the efficacy on changes in the mRNA expression of genes associated with dark skin tone, RT-qPCR experiment was conducted. Cells were cultured in a 37 °C/5% CO2 incubator for one day. To assess the change of KITLG expression by UVB, the medium of human keratinocytes (HaCaT) was replaced with PBS, and 30 mJ/cm^2 of UVB (312 nm) was irradiated using an RMX 3W (Vilber Lourmat) instrument. The medium was replaced with a fresh medium and cultured for one day. To assess the change in KITLG expression by treatment with substances, the cells were treated with appropriate concentrations of substances along with a fresh medium and cultured for one day. […] The expression level of each gene was analyzed by performing qPCR using synthesized cDNA and taqman probe (assay ID: OCA2-Mm00498969_m1, BNC2-Mm00556284_m1, RAB32-Mm00458960_m1, KITLG-Hs00241497_m1).

[2] = system: ASCL2; assay: qPCR of ASCL2 mRNA expression in a-MSH-treated B16F10 cells; assay type: cell-based, mouse; conditions: B16F10, 10 nM a-MSH plus substance, one day, appropriate concentration; FIG. 3
Procedure: as §1, with “spot pigmentation” for “dark skin tone”, “having the” for “having”
(§2) Mouse melanoma cells (B16F10; CRL-6475) were purchased from ATCC for use. The purchased cells were cultured in a 37 °C/5% CO2 incubator using a medium prepared by supplementing Dulbecco's Modified Eagle Medium (DMEM-GIBCO) with 10% fetal bovine serum (FBS) and 1% penicillin/streptomycin.
To analyze the efficacy on changes in the mRNA expression of genes associated with skin spot pigmentation, mouse melanoma cells were seeded at […] cells/well in 6-well plates and cultured in a 37 °C/5% CO2 incubator for one day. After replacing the medium with a fresh medium, 10 nM α-MSH was treated, and substances were added to the medium at appropriate concentrations and cultured for one day under the same conditions. […] The expression level of each gene was analyzed by performing qPCR using synthesized cDNA and taqman probe (assay ID: ASCL2-Mm01268891_m1, PPARGC1B-Mm00504730_m1, TP63-Hs00978349_m1).

[3] = system: scattered dark spots on skin; assay: Human application trial: customized prescription for high-risk group of scattered dark spots; assay type: in vivo; conditions: twice daily, four weeks
Procedure: Accordingly, it was aimed to provide specific substances capable of increasing the improvement efficiency of scattered dark spots according to the risk level of developing scattered dark spots on skin, dark skin tone, and/or spot pigmentation.
After receiving approval from the Institutional Review Board (IRB, Korea) (LG-SKEV-2022-09-A), the study was conducted in accordance with the standard operating guidelines and clinical trial standards of the Institutional Review Board of LG Household & Health Care Co., Ltd. Ten healthy adult subjects aged 20-50 with no apparent skin abnormalities were selected. […]
PIE's Janus3 was used to photograph the front and side of the face under normal, polarized, and UV light. […] The pigmentation improvement rate (%) was calculated by determining the percentage reduction in the pigmentation values after four weeks of use compared to the polarized pigmentation values before use.

[4] = system: dark skin tone; assay: Human application trial: customized prescription for high-risk group of dark skin tone; assay type: in vivo; conditions: twice daily, four weeks
Procedure: Accordingly, it was aimed to provide substances capable of increasing the improvement efficiency of dark skin tone according to the risk level of developing dark skin tone.
After receiving approval from the Institutional Review Board (IRB, Korea) (LG-SKEV-2022-09-A), the study was conducted in accordance with the standard operating guidelines and clinical trial standards of the Institutional Review Board of LG Household & Health Care Co., Ltd. Nine healthy adult subjects aged 20-50 with no apparent skin abnormalities were selected.
Based on the genetic polymorphic markers associated with skin tone brightness in Table 2, subjects were classified into low-risk and high-risk groups according to their risk level of developing dark skin tone as follows. • Risk scores (the sum of each genotype multiplied by its respective effect size (β)) for the five genetic markers were less than −0.193→low-risk group (n=4). • Risk scores (the sum of each genotype multiplied by its respective effect size (β)) for the five genetic markers were −0.193 or higher→high-risk group (n=5).
The same as in Example 4-2 […]
PIE's Janus3 was used to photograph the front and side of the face under normal, polarized, and UV light. […] The pigmentation improvement was calculated by determining the increase in the skin tone brightness values after four weeks of use compared to the skin tone brightness values before use.

[5] = system: PPARGC1B; assay: qPCR of PPARGC1B mRNA expression in a-MSH-treated B16F10 cells; assay type: cell-based, mouse; conditions: B16F10, 10 nM a-MSH plus substance, one day, appropriate concentration; FIG. 3
Procedure: as §1, with “spot pigmentation” for “dark skin tone”, “having the” for “having”
as §2
(§3) To analyze the efficacy on changes in the mRNA expression of genes associated with skin spot pigmentation, mouse melanoma cells were seeded at 2λ10^5 cells/well in 6-well plates and cultured in a 37 °C/5% CO2 incubator for one day. After replacing the medium with a fresh medium, 10 nM α-MSH was treated, and substances were added to the medium at appropriate concentrations and cultured for one day under the same conditions. Thereafter, total RNA was obtained using AccuPrep Universal RNA Extraction Kit (Bioneer, K-3140), and cDNA was synthesized using AccuPower® RocketScript™ Cycle (Bioneer, K-2202). The expression level of each gene was analyzed by performing qPCR using synthesized cDNA and taqman probe (assay ID: ASCL2-Mm01268891_m1, PPARGC1B-Mm00504730_m1, TP63-Hs00978349_m1).

[6] = general description; cited from earlier work
[7] = system: PPARGC1B; assay: qPCR of PPARGC1B mRNA expression in UVB-irradiated mouse melanoma cells; assay type: cell-based; conditions: B16F10, UVB 30 mJ/cm^2 (312 nm), substance one day, appropriate concentration; FIG. 1; UVB alone decreased
Procedure: as §1, with “with scattered” for “with”, “dark spots on” for “dark”, “skin” for “skin tone”, “UVB exposure,” for “a-MSH,”, “UVB exposure” for “a-MSH treatment”
as §2
as §3, with “scattered dark spots on skin,” for “skin spot pigmentation,”, “2*10^5” for “2λ10^5”, “PBS, 30 mJ/cm^2 of UVB (312 nm)” for “a fresh medium, 10 nM α-MSH”, “irradiated using an RMX 3W (Vilber Lourmat) instrument. Substances” for “treated, and substances”, “RocketScript” for “RocketScript™”, “AKAP1-Mm00501539_m1, RAB11FIP2-Mm01261268_m1, PPARGC1B-Mm00504730_m1).” for “ASCL2-Mm01268891_m1, PPARGC1B-Mm00504730_m1, TP63-Hs00978349_m1).”

[8] = general description; very acidic; concentration not given; cited from earlier work
[9] = system: RAB11FIP2; assay: qPCR of RAB11FIP2 mRNA expression in UVB-irradiated mouse melanoma cells; assay type: cell-based; conditions: B16F10, UVB 30 mJ/cm^2 (312 nm), substance one day, appropriate concentration; FIG. 1; UVB alone decreased
Procedure: as §1, with “with scattered” for “with”, “dark spots on” for “dark”, “skin” for “skin tone”, “UVB exposure,” for “a-MSH,”, “UVB exposure” for “a-MSH treatment”
as §2
To analyze the efficacy on changes in the mRNA expression of genes associated with scattered dark spots on skin, mouse melanoma cells were seeded at 2*10^5 cells/well in 6-well plates and cultured in a 37 °C/5% CO2 incubator for one day. After replacing the medium with PBS, 30 mJ/cm^2 of UVB (312 nm) was irradiated using an RMX 3W (Vilber Lourmat) instrument. Substances were added to the medium at appropriate concentrations and cultured for one day under the same conditions. […] The expression level of each gene was analyzed by performing qPCR using synthesized cDNA and taqman probe (assay ID: AKAP1-Mm00501539_m1, RAB11FIP2-Mm01261268_m1, PPARGC1B-Mm00504730_m1).

[10] = system: mouse melanoma cells; assay: Inhibition of melanin production increased by UVB (scattered dark spots); assay type: cell-based; conditions: light or radiation study, 48 h, 25 ppm DIPA alone, UVB 30 mJ/cm^2, two days, FIG. 4, read-out: reduction of melanin production (Y)
Procedure: In detail, mouse melanoma cells were seeded at 2*10^5 cells/well in 6-well plates and cultured in a 37 °C/5% CO2 incubator for one day, followed by irradiation with 30 mJ/cm^2 of UVB (312 nm). Each of media comprising appropriate concentrations and combinations of substances was added and cultured again in a 37 °C/5% CO2 incubator for two days to determine whether or not the substances inhibited the melanin production increased by UVB. Cells attached to the plates were collected in PBS and centrifuged to obtain cell pellets. The cell pellets were visually inspected and photographed. The cell pellets were dissolved in a 1 N NaOH (sodium hydroxide) solution comprising 10% dimethyl sulfoxide (DMSO) at 80 °C for 10 minutes, and placed in a 96-well plate, and absorbance at 405 nm was measured using an Epoch (Biotek) instrument. Melanin was quantified using the measured absorbance and normalized to the sample protein concentration to determine melanin concentration. The inhibition rate of melanin production of the sample was calculated as a ratio of the melanin concentration of the sample treatment group with respect to the melanin concentration increased by UVB.
E=(X+Y)−(X*Y/100) Colby equation

[11] = 8% vitamin C essence, high-risk group (n=5)

## O=c1cc(-c2ccccc2)oc2cc(O)cc(O)c12 [chrysin, 5,7-dihydroxyflavone]
[1]
  change of KITLG expression: decreasing

## tocopherol
[2]
  change of ASCL2 expression: decreasing

## O=C1O[C@H]([C@@H](O)CO)C(O)=C1O [ascorbic acid]
[3]; [11]
  pigmentation improvement in the high-risk group: did not improve pigmentation
[3]; low-risk group (n=5), FIGS. 10, 11
  pigmentation improvement in the low-risk group: did not improve pigmentation
[4]; [11]
  pigmentation improvement in the high-risk group: did not improve pigmentation
[4]; low-risk group (n=4), FIGS. 12, 13
  pigmentation improvement in the low-risk group: slightly improved pigmentation
[5]
  change of PPARGC1B expression: increased

## NC(=O)c1cccnc1 [niacinamide, reference compound]
[6]
  solubility in water: dissolves well in water
[7]
  change of PPARGC1B expression: increased

## O=C(O)c1ccccc1O [salicylic acid, reference compound]
[7]
  change of PPARGC1B expression: increased
[8]
  pH: 2.4

## CC(C)OC(=O)CCCCC(=O)OC(C)C [diisopropyl adipate (DIPA), diisopropyl adipate]
[9]
  change of RAB11FIP2 expression: increasing
[10]
  inhibition at 25 ppm: ~1.5%
